Data taken from patent US8796298B2, “Combination of a B-Raf inhibitor: N-{3-[5-(2-Amino-4-pyrimidinyl)-2-(1,1- dimethylethyl)-1,3-thiazol-4-yl]-2-fluorophenyl}-2,6-difluorobenzenesulfonamide and the Akt inhibitor: N-{ (1S)-2-amino-1-[(3- fluorophenyl)methyl]ethyl}-5-chIoro-4-(4-chIoro- 1 -methyl- 1 H-pyrazol-5-yl)-2-10 …” (GlaxoSmithKline LLC, priority 2009, dated 2014).
Read-outs that look alike come from different tables or passages of the source.

Legend:
HT29 = test: Cell growth inhibition assay (Cell Titer Glo), HT29; format: cell-based, Human
Procedure: (§1) Human colon tumor lines, Colo205, DLD1, HCC2998, HCT15, HCT8, HT29, KM-12, LS1034, LS174T, RKO, SW1463, SW480, SW837 and T84, and human breast tumor cell lines EFM19 and MDA-MB-175VII were cultured in RPMI 1640 medium containing 10% fetal bovine serum (FBS).
(§2) All cells were cultured for a minimum of 72 hours prior to cell plating. Cells were assayed in a 96-well tissue culture plate (NUNC 136102) of RPMI medium containing 10% FBS for all cells at 1,000 cells per well. […] ATP levels were determined by adding Cell Titer Glo® (Promega) according to the manufacturer's protocol. Briefly, Cell Titer Glo® was added each plate, incubated for 30 minutes then luminescent signal was read on the SpectraMax L plate reader with a 0.5 sec integration time.
(§3) Inhibition of cell growth was estimated after treatment with compound or combination of compounds for three days and comparing the signal to cells treated with vehicle (DMSO). Cell growth was calculated relative to vehicle (DMSO) treated control wells. […]
(§4) The combination effects on the response scale were quantified by Excess Over Highest Single Agent (EOHSA) based on the concept of nonlinear blending as described in detail by Peterson and Novick (2007) and Peterson (2010) [(2;3) [Peterson and Novick, 2007; Peterson, 2010]. […]

DLD1 = test: Cell growth inhibition assay (Cell Titer Glo), DLD1; format: cell-based; conditions: Homo sapiens, DLD-1, 72 h; DLD1 colon; BRAF WT, KRAS G13D, PIK3CA E545K, D549N; 3 days; read-out: IC50 values, Single Agent
Procedure: as §1, §2, §3, §4

LS1034 = test: Cell growth inhibition assay (Cell Titer Glo), LS1034; format: cell-based; conditions: Homo sapiens, LS-1034, 72 h; LS1034 colon; BRAF WT, KRAS A146T, PIK3CA WT; 3 days; read-out: IC50 values, Single Agent
Procedure: as §1, §2, §3, §4

Colo205 = test: Cell growth inhibition assay (Cell Titer Glo), Colo205; format: cell-based, Human; conditions: for IC50: Homo sapiens, COLO 205, 72 h, Colo205 colon, BRAF V600E, KRAS WT, PIK3CA WT, 3 days, mean ± std, read-out: IC50 values, Single Agent
Procedure: as §1
(§5) All cells were cultured for a minimum of 72 hours prior to cell plating. Cells were assayed in a 96-well tissue culture plate (NUNC 136102) of RPMI medium containing 10% FBS for all cells at 1,000 cells per well. Approximately 24 hours after plating, cells were exposed to ten, three-fold serial dilutions of compound or the combination of the two agents at a constant molar to molar ratio of 1:10 Compound A to Compound B in RPMI media containing 10% FBS. Cells were incubated in the presence of compounds for 3 days. ATP levels were determined by adding Cell Titer Glo® (Promega) according to the manufacturer's protocol. Briefly, Cell Titer Glo® was added each plate, incubated for 30 minutes then luminescent signal was read on the SpectraMax L plate reader with a 0.5 sec integration time.
(§6) Inhibition of cell growth was estimated after treatment with compound or combination of compounds for three days and comparing the signal to cells treated with vehicle (DMSO). Cell growth was calculated relative to vehicle (DMSO) treated control wells.
(§7) In general, a CI value <0.9, between 0.9 and 1.1, or >1.1 indicates synergy, additivity and antagonism, respectively. […]
The combination effects on the response scale were quantified by Excess Over Highest Single Agent (EOHSA) based on the concept of nonlinear blending as described in detail by Peterson and Novick (2007) and Peterson (2010) [(2;3) [Peterson and Novick, 2007; Peterson, 2010]. […] For single agent and combination treatments, cells were exposed to compounds at a fixed-dose-ratio, and dose response curves were fit to the experimental data and analyzed using regression models. At specified total dose levels of IC50 along the dose response curve, the dose combination (corresponding to IC50) was determined for making EOHSA statistical inferences.

SW480 = test: Cell growth inhibition assay (Cell Titer Glo), SW480; format: cell-based; conditions: Homo sapiens, 72 h; SW480 colon; BRAF WT, KRAS G12C, PIK3CA WT; 3 days; mean ± std; read-out: IC50 values, Single Agent
Procedure: as §1, §2, §3, §4

HCC2998 = test: Cell growth inhibition assay (Cell Titer Glo), HCC2998; format: cell-based; conditions: Homo sapiens, HCC 2998, 72 h; HCC2998 colon; BRAF WT, KRAS A146T, PIK3CA WT; 3 days; read-out: IC50 values, Single Agent
Procedure: as §1, §2, §3, §4

EFM19 = test: Cell growth inhibition assay (Cell Titer Glo), EFM19; format: cell-based; conditions: Homo sapiens, EFM-19, 72 h; EFM19 breast; BRAF WT, KRAS WT, PIK3CA WT; 3 days; mean ± std; read-out: IC50 values, Single Agent
Procedure: as §1, §2, §3, §4

SW837 = test: Cell growth inhibition assay (Cell Titer Glo), SW837; format: cell-based; conditions: Homo sapiens, 72 h; SW837 colon; BRAF WT, KRAS G12C, PIK3CA WT; 3 days; read-out: IC50 values, Single Agent
Procedure: as §1, §2, §3, §4

RKO colon line = test: Cell growth inhibition assay (Cell Titer Glo), RKO; format: cell-based; conditions: Homo sapiens
Procedure: as §1, §5, §6
In general, a CI value <0.9, between 0.9 and 1.1, or >1.1 indicates synergy, additivity and antagonism, respectively. In general, the smaller the CI number, the greater is the strength of synergy.
(§8) The combination effects on the response scale were quantified by Excess Over Highest Single Agent (EOHSA) based on the concept of nonlinear blending as described in detail by Peterson and Novick (2007) and Peterson (2010) [(2;3) [Peterson and Novick, 2007; Peterson, 2010]. EOHSA values are defined as increases in improvement (here, in ‘percentage points’ (ppts) difference) produced by the combination over the best single agent at its component dose level for the combination. For single agent and combination treatments, cells were exposed to compounds at a fixed-dose-ratio, and dose response curves were fit to the experimental data and analyzed using regression models. At specified total dose levels of IC50 along the dose response curve, the dose combination (corresponding to IC50) was determined for making EOHSA statistical inferences.

T84 = test: Cell growth inhibition assay (Cell Titer Glo), T84; format: cell-based; conditions: Homo sapiens, 72 h; T84 colon; BRAF WT, KRAS G13D, PIK3CA E542K; 3 days; read-out: IC50 values, Single Agent
Procedure: as §1, §2, §3, §4

HCT8 = test: Cell growth inhibition assay (Cell Titer Glo), HCT8; format: cell-based; conditions: Homo sapiens, HCT-8, 72 h; HCT8 colon; BRAF WT, KRAS G13D, PIK3CA E545K; 3 days; mean ± std; read-out: IC50 values, Single Agent
Procedure: as §1, §2, §3, §4

[1] = tested on: 10 colon lines without BRAF V600E mutation; test: Cell growth inhibition assay (Cell Titer Glo), colon lines without BRAF V600E mutation; format: cell-based; conditions: Homo sapiens; the other 10 colon lines without BRAF V600E mutation (KRAS wild type or mutated); read-out: IC50s, compound alone
Procedure: All cells were cultured for a minimum of 72 hours prior to cell plating. […] Cells were incubated in the presence of compounds for 3 days. ATP levels were determined by adding Cell Titer Glo® (Promega) according to the manufacturer's protocol. Briefly, Cell Titer Glo® was added each plate, incubated for 30 minutes then luminescent signal was read on the SpectraMax L plate reader with a 0.5 sec integration time.
as §6, §7
as §8, with “EOHSA” for “The combination effects on the response scale were quantified by Excess Over Highest Single Agent (EOHSA) based on the concept of nonlinear blending as described in detail by Peterson and Novick (2007) and Peterson (2010) [(2;3) [Peterson and Novick, 2007; Peterson, 2010]. EOHSA”

KM-12 = test: Cell growth inhibition assay (Cell Titer Glo), KM-12; format: cell-based; conditions: Homo sapiens, KM12, 72 h; KM-12 colon; BRAF WT, KRAS WT, PIK3CA WT; 3 days; mean ± std; read-out: IC50 values, Single Agent
Procedure: as §1, §2, §3, §4

MDA-MB-175VII = test: Cell growth inhibition assay (Cell Titer Glo), MDA-MB-175VII; format: cell-based; conditions: Homo sapiens, 72 h; MDA-MB-175VII breast; BRAF WT, KRAS WT, PIK3CA H1049L; 3 days; mean ± std; read-out: IC50 values, Single Agent
Procedure: as §1, §2, §3, §4

HCT15 = test: Cell growth inhibition assay (Cell Titer Glo), HCT15; format: cell-based; conditions: Homo sapiens, HCT-15, 72 h; HCT15 colon; BRAF WT, KRAS G13D, PIK3CA D549N, E545K; 3 days; mean ± std; read-out: IC50 values, Single Agent
Procedure: as §1, §2, §3, §4

SW1463 = test: Cell growth inhibition assay (Cell Titer Glo), SW1463; format: cell-based; conditions: Homo sapiens, 72 h; SW1463 colon; BRAF WT, KRAS G12C, PIK3CA WT; 3 days; read-out: IC50 values, Single Agent
Procedure: as §1, §2, §3, §4

[2] = 72 h, RKO colon, BRAF V600E, KRAS WT, PIK3CA H1047R, 3 days, mean ± std, read-out: IC50 values, Single Agent
[3] = RKO colon line, BRAF V600E and PIK3CA H1047R, single agent, read-out: IC50, compound alone

With `CC(C)(C)c1nc(-c2cccc(NS(=O)(=O)c3c(F)cccc3F)c2F)c(-c2ccnc(N)n2)s1` [Compound A, N-{3-[5-(2-Amino-4-pyrimidinyl)-2-(1,1-dimethylethyl)-1,3-thiazol-4-yl]-2-fluorophenyl}-2,6-difluorobenzenesulfonamide] the “sensitivity to compound alone in words” value (HT29; HT29, BRAF V600E mutation line) was “highly sensitive”, the IC50 (DLD1) was over 10 µM and the IC50 (LS1034) was over 10 µM. The “sensitivity to compound alone in words” value (Colo205; Colo205, BRAF V600E mutation line) was “highly sensitive”, the IC50 (Colo205) was 13 ± 4 nM and the IC50 (SW480) was over 10 µM. It also gave an IC50 (HCC2998) of over 10 µM, an IC50 (EFM19) of over 10000 nM and an IC50 (SW837) of over 10 µM. The IC50 (RKO colon line; [2]) was 4200 ± 4030 nM, the IC50 (RKO colon line; [3]) was over 1000 nM and the IC50 (T84) was over 10 µM. For the same compound, the IC50 (HCT8) was over 10000 nM, the IC50 [1] was over 10 µM and the IC50 (KM-12) was over 10 µM. The IC50 (MDA-MB-175VII) was over 10000 nM, the IC50 (HCT15) was over 10 µM and the IC50 (SW1463) was over 10 µM.
Compound `Cn1ncc(Cl)c1-c1cc(C(=O)N[C@H](CN)Cc2cccc(F)c2)sc1Cl` [Compound B, N-{(1S)-2-amino-1-[(3-fluorophenyl)methyl]ethyl}-5-chloro-4-(4-chloro-1-methyl-1H-pyrazol-5-yl)-2-thiophenecarboxamide] has an IC50 (HT29; Homo sapiens, HT-29, 72 h, HT29 colon, BRAF V600E, KRAS WT, PIK3CA P449T, 3 days, mean ± std, read-out: IC50 values, Single Agent) of 1430 ± 73 nM, an IC50 (DLD1) of over 10 µM and an IC50 (LS1034) of over 10 µM. It also gave an IC50 (Colo205) of 3290 ± 242 nM, an IC50 (SW480) of 6.08 ± 0.154 µM and an IC50 (HCC2998) of over 10 µM. It also gave an IC50 (EFM19) of 444 ± 285 nM, an IC50 (SW837) of over 10 µM and an IC50 (RKO colon line; [2]) of 1360 ± 614 nM. The IC50 (RKO colon line; [3]) was over 1000 nM, the IC50 (T84) was over 10 µM and the IC50 (HCT8) was 1550 ± 51 nM. For the same compound, the IC50 (KM-12) was 4.45 ± 4.2 µM, the IC50 (MDA-MB-175VII) was 844 ± 33 nM and the IC50 (HCT15) was 7.77 ± 1.69 µM. The IC50 (SW1463) was over 10 µM.
